Experimental findings from patent US11787780B2 (CORCEPT THERAPEUTICS INCORPORATED, priority 2020, dated 2023) are described below.

SMILES strings stand for the structures.

Assay [1] concerns induction of TAT by dexamethasone in HepG2 cells. The experiment in a line: Hep G2 TAT assay (inhibition of dexamethasone-induced TAT). In kind it is cell-based, human. Particulars: agonist induction of TAT, read-out: average EC50 value (half-maximal effect) of TAT production.
Assay [2] concerns the target glucocorticoid receptor (GR) recombinant ligand binding domain (LBD) (Homo sapiens (Human), UniProt P04150). The experiment in a line: GR binding fluorescence polarisation (FP) assay. Particulars: displacement of fluorescently tagged ligand. As to the method: Binding of test compounds to the glucocorticoid receptor (GR) is determined using a fluorescence polarisation (FP) assay utilising a recombinant ligand binding domain (LBD) of GR. The test compounds are assessed by their ability to displace a fluorescently tagged ligand and detection of the resulting decrease in fluorescence polarisation.

Assay [3] has as its system induction of TAT by dexamethasone in HepG2 cells. Description: Hep G2 TAT assay (inhibition of dexamethasone-induced TAT). In kind it is cell-based, human. To be noted: challenge of 100 nM dexamethasone, IC50 converted to Ki by Cheng and Prusoff equation.

Chain of glucocorticoid receptor (GR) recombinant ligand binding domain (LBD) (P04150 524-758): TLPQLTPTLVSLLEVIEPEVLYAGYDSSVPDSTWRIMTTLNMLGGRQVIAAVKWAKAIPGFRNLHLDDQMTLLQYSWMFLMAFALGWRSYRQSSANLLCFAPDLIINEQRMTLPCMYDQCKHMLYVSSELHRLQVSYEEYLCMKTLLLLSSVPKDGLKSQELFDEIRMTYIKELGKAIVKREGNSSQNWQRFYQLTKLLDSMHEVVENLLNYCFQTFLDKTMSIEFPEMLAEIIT

Consider `C[C@@H]1C[C@H]2[C@@H]3CCC4=CC(=O)C=C[C@]4(C)[C@@]3(F)[C@@H](O)C[C@]2(C)[C@@]1(O)C(=O)CO` [Dexamethasone, dexamethasone], for which the EC50 – broadly, the concentration that produces a half-maximal response – in assay [1] is 20 nM.

`CCCn1cc(S(=O)(=O)N2CC[C@@](Cc3ccccc3)(c3cc4cnn(-c5ccc(F)cc5)c4cc3C)C2)cn1` [Example 17, (S)-5-(3-benzyl-1-((1-propyl-1H-pyrazol-4-yl)sulfonyl)pyrrolidin-3-yl)-1-(4-fluorophenyl)-6-methyl-1H-indazole]: the IC50 (usually the point on the concentration scale where inhibition reaches its midpoint) in assay [2] is 52 nM. Besides, the Ki (as a rule, the equilibrium dissociation constant of an inhibitor or competing ligand from its target) in assay [3] turned out to be 23 nM.

As to `CCCn1cc(S(=O)(=O)N2CC[C@H](c3ccc4c(cnn4-c4ccc(F)cc4)c3)C[C@H]2C)cn1` [Example 10, 1-(4-fluorophenyl)-5-((2R,4S)-2-methyl-1-((1-propyl-1H-pyrazol-4-yl)sulfonyl)piperidin-4-yl)-1H-indazole], in assay [2], the IC50 was determined as 214 nM. This molecule also came in with a Ki in assay [3] of 238 nM.

`CCCn1cc(S(=O)(=O)NC2(C)CCN(c3cc4cnn(-c5ccc(F)cc5)c4cc3C)CC2)cn1` [Example 129]: in assay [2], the IC50 amounted to 5 nM. The molecule also registered a Ki in assay [3] of 66 nM.

Turning to `Cc1cc2c(cnn2-c2cnn(C)c2)cc1C1(Cc2ccccc2)CCN(S(=O)(=O)c2cnn(C)n2)C1` (stereo not shown) [Example 249, 5-(3-benzyl-1-((2-methyl-2H-1,2,3-triazol-4-yl)sulfonyl)pyrrolidin-3-yl)-6-methyl-1-(1-methyl-1H-pyrazol-4-yl)-1H-indazole], in assay [2], the IC50 came out at 4.8 nM. The same molecule returned a Ki in assay [3] of 39 nM.

Consider `Cc1cc2c(cnn2-c2ccc(=O)n(C)c2)cc1C1(Cc2ccccc2)CCN(S(=O)(=O)c2ccc(C(F)(F)F)nc2)C1` (stereo not shown) [Example 292, 5-(5-(3-benzyl-1-((6-(trifluoromethyl)pyridin-3-yl)sulfonyl)pyrrolidin-3-yl)-6-methyl-1H-indazol-1-yl)-1-methylpyridin-2(1H)-one], for which, in assay [2], the IC50 came out at 14 nM. Further, the affinity in assay [3] corresponds to a Ki of 110 nM.

Turning to `Cc1cc2c(cnn2-c2cnn(C)c2C)cc1C1(Cc2ccccc2)CCN(S(=O)(=O)c2cnn(C)n2)C1` (stereo not shown) [Example 253, 5-(3-benzyl-1-((2-methyl-2H-1,2,3-triazol-4-yl)sulfonyl)pyrrolidin-3-yl)-1-(1,5-dimethyl-1H-pyrazol-4-yl)-6-methyl-1H-indazole], in assay [2], the IC50 came out at 24 nM. In assay [3], the Ki worked out at 240 nM.

Regarding `Cc1cc2c(cnn2-c2ccc(F)cc2)cc1N1CCN(S(=O)(=O)c2cnn(C)c2)C2(CC2)C1` [Example 59], in assay [2], the IC50 turned out to be 19 nM. Moreover, the affinity in assay [3], expressed as Ki, was 246 nM.

Turning to `Cc1cc2c(cnn2-c2ccc(F)cc2)cc1N1CCC[C@H](N(C)S(=O)(=O)c2cnn(C)c2)C1` [Example 124], the IC50 in assay [2] was 58 nM. In assay [3], the Ki came to 216 nM.

For `COCCN([C@@H]1CCN(c2cc3cnn(-c4ccc(F)cc4)c3cc2C)C1)S(=O)(=O)c1cnn(C)c1` [Example 121], the IC50 in assay [2] is 40 nM. This molecule also returned a Ki in assay [3] of 120 nM.

As to `Cc1cc2c(cnn2-c2ccc(=O)n(C)c2)cc1C1(Cc2ccccc2)CN(S(=O)(=O)c2cnn(C)n2)CC1C` (stereo not shown) [Example 335, 5-(5-(3-benzyl-4-methyl-1-((2-methyl-2H-1,2,3-triazol-4-yl)sulfonyl)pyrrolidin-3-yl)-6-methyl-1H-indazol-1-yl)-1-methylpyridin-2(1H)-one], the IC50 in assay [2] amounted to 11 nM. For the same molecule, the Ki in assay [3] was 46 nM.

In the case of `CCOC(=O)N1CCN(c2cc3cnn(-c4ccc(F)cc4)c3cc2C)CC12CC2` [Example 103], the IC50 in assay [2] stood at 135 nM. In assay [3], the Ki was determined as 1710 nM.

As to `Cc1cc2c(cnn2-c2ccc(F)cc2)cc1C1(Cc2cccnc2)CCN(S(C)(=O)=O)C1` (stereo not shown) [Example 148], in assay [2], the IC50 worked out at 24 nM. Moreover, affinity in assay [3] was put at a Ki of 331 nM.

Turning to `Cc1cc2c(cnn2-c2ccnn2C)cc1C1(Cc2ccccc2)CCN(S(=O)(=O)c2cnn(C)n2)C1` (stereo not shown) [Example 260, 5-(3-benzyl-1-((2-methyl-2H-1,2,3-triazol-4-yl)sulfonyl)pyrrolidin-3-yl)-6-methyl-1-(1-methyl-1H-pyrazol-5-yl)-1H-indazole], the IC50 in assay [2] worked out at 150 nM. The same molecule showed a Ki in assay [3] of 350 nM.

As for `CCCn1cc(S(=O)(=O)N2CCN(c3cc4cnn(-c5cccc(C(=O)NC6CCOC6)c5)c4cc3C)CC23CC3)cn1` (stereo not shown) [Example 84], the IC50 in assay [2] turned out to be 10 nM. The Ki in assay [3] worked out at 103 nM.

Turning to `CCCn1cc(S(=O)(=O)N2CCC(Cc3cccnc3)(c3cc4cnn(-c5ccc(F)cc5)c4cc3C)C2)cn1` (stereo not shown) [Example 149], in assay [2], the IC50 worked out at 13 nM. Further, in assay [3], the Ki amounted to 108 nM.

Turning to `CS(=O)(=O)N1CCC(Cc2ccccc2)(c2ccc3c(cnn3-c3ccc(F)cc3)c2)C1=O` (stereo not shown) [Example 338, 3-benzyl-3-(1-(4-fluorophenyl)-1H-indazol-5-yl)-1-(methylsulfonyl)pyrrolidin-2-one], in assay [2], the IC50 came to 26 nM. Also, in assay [3], the affinity, expressed as Ki, was 120 nM.

As for `CS(=O)(=O)N1CCC(Cc2ccccc2)(c2cc3cnn(-c4ccc(F)cc4)c3cc2Cl)C1` (stereo not shown) [Example 222, 5-(3-benzyl-1-(methylsulfonyl)pyrrolidin-3-yl)-6-chloro-1-(4-fluorophenyl)-1H-indazole], in assay [2], the IC50 was 11 nM. Further, the affinity in assay [3] corresponds to a Ki of 39 nM.

Consider `CCCn1cc(S(=O)(=O)N2CC=C(c3cc4cnn(-c5ccc(F)cc5)c4cc3Cl)CC2)cn1` [Example 143], for which the IC50 in assay [2] came out at 384 nM. In addition, the affinity in assay [3] corresponds to a Ki of 32 nM.

On to `Cn1ncc(S(=O)(=O)N2CCC(Cc3ccccc3)(c3cc4cnn(-c5ccc(F)cc5)c4cc3Cl)C2)n1` (stereo not shown) [Example 226, 5-(3-benzyl-1-((2-methyl-2H-1,2,3-triazol-4-yl)sulfonyl)pyrrolidin-3-yl)-6-chloro-1-(4-fluorophenyl)-1H-indazole], for which the IC50 in assay [2] turned out to be 21 nM. The molecule further showed a Ki in assay [3] of 13 nM.

On to `Cc1cc2c(cnn2-c2ccc(=O)n(C)c2)cc1C1(Cc2ccccc2)CCN(S(=O)(=O)c2cn(C)cn2)C1` (stereo not shown) [Example 290, 5-(5-(3-benzyl-1-((1-methyl-1H-imidazol-4-yl)sulfonyl)pyrrolidin-3-yl)-6-methyl-1H-indazol-1-yl)-1-methylpyridin-2(1H)-one], for which the IC50 in assay [2] worked out at 62 nM. For the same molecule, in assay [3], the affinity, expressed as Ki, was 200 nM.

For the molecule `Cc1cc2c(cnn2-c2ccc(=O)n(C)c2)cc1C1(C(C)c2ccccc2)CCN(S(=O)(=O)c2cnn(C)n2)C1` (stereo not shown) [Example 274, 1-methyl-5-(6-methyl-5-(1-((2-methyl-2H-1,2,3-triazol-4-yl)sulfonyl)-3-(1-phenylethyl)pyrrolidin-3-yl)-1H-indazol-1-yl)pyridin-2(1H)-one], the IC50 in assay [2] is 81 nM. In assay [3], this molecule came in with a Ki of 290 nM.
